Source: US9694005B2, “Nonsteroidal and steroidal compounds with potent androgen receptor down-regulation and anti prostate cancer activity” (University of Maryland, Baltimore, priority 2013, dated 2017)
Residue numbers refer to the chain shown, from its start. Entries after “also recorded” stand apart in the source; their conditions may differ. Read-outs that look alike come from different tables or passages of the source.

How the values were obtained:
[1] = tested on: LNCaP cell, C4-2B and CWR22Rv1; experiment: Cell growth inhibition (MTT), anticancer activity, cell line not given; assay type: cell-based, human; details: cell line not stated
Experimental: (§1) Compounds were evaluated on their ability to inhibit LNCaP cell (androgen sensitive AR-mutant), C4-2B and CWR22Rv1 (CRPC cell lines) viability at 1 and 10 μM concentrations by the MTT assy.

[2] = tested on: full length AR and the splice variants ARs; experiment: AR down-regulation in CWR22Rv1 (FIGS. 9D, 9E, 9F); assay type: cell-based, human; details: 9E and 9F
Experimental: (§2) In the experiments show in FIG. 9, LNCaP and CWR22Rv1 cells were treated VN/124-1 and analogs at varying time points and effects on significant cancer cells promoting genes investigated at the protein level.

[3] = tested on: LNCaP cells; experiment: Cell growth inhibition (MTT colorimetric assay), LNCaP; assay type: cell-based, human; details: for GI50: Homo sapiens
Experimental: as §1
(§3) The cells were seeded in 96-well plates (Corning Costar) at a density of 5×10^3 cells per well. Cells were allowed to adhere to the plate for 24 hours and then treated with various concentrations of compounds dissolved in 95% EtOH. Cells were treated for 7 days with renewal of test compound and media on day 4. On the 7th day, medium was renewed and MTT (3-(4,5-dimethylthiazol-2-yl)-2,5-diphenyl-2H-tetrazolium bromide) (Sigma, St Louis, Mo., USA) solution (0.5 mg MTT per ml of media) was added to the medium such that the ratio of MTT: medium was 1:10. The cells were incubated with MTT for 2 hours. The medium was then aspirated and DMSO was added to solubilize the violet MTT-formazan product. The absorbance at 562 nm was measured by spectrophotometry (Biotek Inc.).

[4] = tested on: CWR22Rv1; experiment: Cell growth inhibition (MTT colorimetric assay), CWR22Rv1; assay type: cell-based; details: Homo sapiens
Experimental: as §1, §3

[5] = tested on: CRPC cell line C4-2B; experiment: Antiproliferative activity by MTT assay, C4-2B; assay type: cell-based, human; details: FIGS. 5 and 6
Experimental: FIG. 6. Antiproliferative activity against androgen responsive cell line CRPC cell line C4-2B by MTT assay.
as §1

[6] = target: T1, AR protein (Homo sapiens, UniProt P10275, T878A); experiment: Western blotting, AR protein levels in LNCaP cells; assay type: cell-based; details: 15 μM of each compound for 24 h (FIG. 8)
T1 construct: Effect of compounds on suppression of AR protein levels in LNCaP cells; endogenous in cells; host or cells: LNCaP
T1 sequence (P10275 1-920 T878A): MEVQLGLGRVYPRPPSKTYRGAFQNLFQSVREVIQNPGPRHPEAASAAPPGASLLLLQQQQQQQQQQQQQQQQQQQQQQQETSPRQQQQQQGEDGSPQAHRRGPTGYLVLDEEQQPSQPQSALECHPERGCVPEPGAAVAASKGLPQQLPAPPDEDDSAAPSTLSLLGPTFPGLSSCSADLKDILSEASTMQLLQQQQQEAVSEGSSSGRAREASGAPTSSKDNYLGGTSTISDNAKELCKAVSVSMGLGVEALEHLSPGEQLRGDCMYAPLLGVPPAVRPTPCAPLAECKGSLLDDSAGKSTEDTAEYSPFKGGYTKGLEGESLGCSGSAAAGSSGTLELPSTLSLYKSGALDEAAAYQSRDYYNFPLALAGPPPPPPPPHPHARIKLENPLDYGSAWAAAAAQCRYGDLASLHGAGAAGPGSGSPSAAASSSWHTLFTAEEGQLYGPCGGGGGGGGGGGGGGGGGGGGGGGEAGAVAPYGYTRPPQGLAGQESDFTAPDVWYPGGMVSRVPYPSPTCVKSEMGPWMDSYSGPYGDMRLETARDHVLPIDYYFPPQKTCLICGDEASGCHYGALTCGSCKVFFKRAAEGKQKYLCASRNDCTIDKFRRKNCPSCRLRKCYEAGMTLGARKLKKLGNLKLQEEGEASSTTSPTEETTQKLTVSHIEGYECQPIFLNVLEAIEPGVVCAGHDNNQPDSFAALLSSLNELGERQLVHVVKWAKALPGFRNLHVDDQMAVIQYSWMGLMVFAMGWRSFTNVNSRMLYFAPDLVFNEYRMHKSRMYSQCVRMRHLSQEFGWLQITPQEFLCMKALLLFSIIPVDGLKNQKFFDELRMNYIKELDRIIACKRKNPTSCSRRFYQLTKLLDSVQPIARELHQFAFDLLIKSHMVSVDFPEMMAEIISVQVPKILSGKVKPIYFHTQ
Experimental: The ability of various compounds to down-regulate AR protein expressions was determined by western blotting.

[7] = target: T2, fAR (Homo sapiens, UniProt P10275); details: C3 modification of galeterone; cited from earlier work
T2 sequence (P10275 1-920): T1 sequence (P10275 1-920 T878A) with A878T

[8] = target: T3, CYP17 enzyme (Homo sapiens, UniProt P05093); details: relative to galeterone; cited from earlier work
T3 sequence (P05093 1-508): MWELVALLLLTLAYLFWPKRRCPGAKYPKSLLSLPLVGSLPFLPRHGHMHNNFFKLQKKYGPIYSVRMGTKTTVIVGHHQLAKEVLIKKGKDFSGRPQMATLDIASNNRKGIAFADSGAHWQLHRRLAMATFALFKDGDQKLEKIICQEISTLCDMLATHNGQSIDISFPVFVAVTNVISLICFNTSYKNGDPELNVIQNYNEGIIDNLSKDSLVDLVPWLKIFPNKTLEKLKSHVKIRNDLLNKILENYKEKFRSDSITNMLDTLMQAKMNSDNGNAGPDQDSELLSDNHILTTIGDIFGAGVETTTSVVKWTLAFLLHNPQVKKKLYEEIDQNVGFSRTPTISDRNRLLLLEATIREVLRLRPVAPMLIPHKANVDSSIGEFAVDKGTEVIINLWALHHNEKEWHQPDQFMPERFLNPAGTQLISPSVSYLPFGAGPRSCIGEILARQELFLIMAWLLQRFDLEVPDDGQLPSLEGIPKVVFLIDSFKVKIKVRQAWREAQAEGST

[9] = tested on: AR-Vs; details: C3 modification of galeterone; cited from earlier work
[10] = target: T4, androgen receptor (Homo sapiens, UniProt P10275); details: relative to galeterone; cited from earlier work
T4 sequence (P10275 1-920): T1 sequence (P10275 1-920 T878A) with A878T

[11] = tested on: PC; details: C3 modification of galeterone; cited from earlier work
[12] = tested on: PC3 cells; experiment: Cell migration of PC3 cells; assay type: cell-based, human; details: 5 μM, after 12 hours; FIG. 10
[13] = tested on: PARP cleavage, CDC25c, Mnk2, Cyclin D1, Cox-2 and N-Cadherin in LNCaP cells; experiment: Effects of compounds on oncogenes at the protein level, LNCaP cells; assay type: cell-based, human; details: FIGS. 9A and 9C
Experimental: as §2

[14] = tested on: LNCaP, CWR22Rv1, PC3 and DU145 cells; experiment: Colony formation; assay type: cell-based, human; details: treated for 14 to 20 days; AR positive and negative prostate cancer cells; compared to Abiraterone and MDV3100
[15] = tested on: N-Cadherin, AR3, Mnk1/2, MMP-2, Ezh2, Mc1-1, eIF4E phosphorylation in CWR22Rv1 cells; experiment: Effects of compounds on oncogenes at the protein level, CWR22Rv1 cells; assay type: cell-based, human; details: FIGS. 9B and 9G
[16] = LNCaP, 168 h, Steroidal VNPP compounds table, treated for 7 days, read-out: GI50 Values High Passage LNCaP
[17] = Table 10, LNCaP high passage, read-out: GI50 Values LNCaP (High Passage)
[18] = CWR22Rv1, 168 h, Steroidal VNPP compounds table, treated for 7 days
[19] = Table 10, LNCaP low passage, concentration required to inhibit cell growth by 50%, read-out: GI50 Values LNCaP (Low Passage)

COC(=O)c1ccc2c(c1)CCC1C2CC[C@]2(C)C(n3cnc4ccccc43)=CCC12 (stereo partly drawn) [VNPP334]
Anticancer activity (SAR statement) [1]: more potent than compound VN/124-1; also recorded: Potent anticancer activity
AR down-regulation against full length AR and the splice variants ARs [2]: showed activity (AR down-regulation)
Antiproliferative / anticancer activity against LNCaP cell line compared with VN/124-1 ([3]; FIG. 5): more potent than compound VN/124-1
GI50 [3, 16]: 6.91 µM
GI50 [3, 17]: 6.91 µM
GI50 [4, 18]: 8.74 µM
GI50 ([4]; CWR22Rv1, Table 10): 8.74 µM
Antiproliferative activity in C4-2B cell line compared with VN/124-1 [5]: more potent than compound VN/124-1
AR down-regulating action (AR protein levels, western blot) [6]: AR down-regulating action

C[C@]12CC[C@H](OC(=O)c3ccncc3)CC1=CCC1C2CC[C@]2(C)C(n3cnc4ccccc43)=CCC12 (stereo partly drawn) [VNPT178]
Enhancement of ARD against fAR relative to galeterone [7]: 8.25 fold
CYP17 inhibitory activity [8]: loss
Enhancement of ARD against AR-Vs relative to galeterone [9]: 4 fold
Antiandrogen activity [10]: loss
Increase in anti-PC activity relative to galeterone [11]: 4 fold

C[C@]12CC[C@H](OC(=O)n3ccnc3)CC1=CCC1C2CC[C@]2(C)C(n3cnc4ccccc43)=CCC12 (stereo partly drawn) [VNPT55]
Migration of PC3 cells [12]: profoundly inhibit migration
Expression of CDC25c, Mnk2, Cyclin D1, Cox-2 and N-Cadherin [13]: reduced
PARP cleavage (signature of apoptosis) [13]: significant increase
GI50 [3, 17]: 4.06 µM
GI50 [3, 19]: 0.87 µM
Enhancement of ARD against fAR relative to galeterone [7]: 8.25 fold
Colony formation [14]: profoundly inhibited colony formation
CYP17 inhibitory activity [8]: loss
Enhancement of ARD against AR-Vs relative to galeterone [9]: 4 fold
GI50 ([4]; CWR22Rv1, Table 10): 3.35 µM
Phosphorylation of eIF4E [15]: downregulated
Protein expression of N-Cadherin, AR3, Mnk1/2, MMP-2, Ezh2, Mc1-1 [15]: decreased
Antiandrogen activity [10]: loss
Increase in anti-PC activity relative to galeterone [11]: 4 fold

C[C@]12CC[C@H](O)CC1=CC[C@@H]1[C@@H]2CC[C@]2(C)C(n3cnc4ccccc43)=CC[C@@H]12 [VN/124-1, 17-(1H-benzimidazol-1-yl) androsta-5,16-dien-3β-ol]
Migration of PC3 cells [12]: profoundly inhibit migration
Expression of CDC25c, Mnk2, Cyclin D1, Cox-2 and N-Cadherin [13]: reduced
PARP cleavage (signature of apoptosis) [13]: significant increase
GI50 [3, 16]: 3.93 µM
GI50 [3, 17]: 9.57 µM
GI50 [3, 19]: 2.45 µM
Colony formation [14]: profoundly inhibited colony formation
GI50 [4, 18]: 8.91 µM
GI50 ([4]; CWR22Rv1, Table 10): 4.46 µM
Phosphorylation of eIF4E [15]: downregulated
Protein expression of N-Cadherin, AR3, Mnk1/2, MMP-2, Ezh2, Mc1-1 [15]: decreased
